Read-outs that look alike come from different tables or passages of the source. Square brackets hold non-standard residues; d marks the D form. Ends that are not written are not given here. K(FITC) = lysine labelled with FITC
Tests used:
[1] = system: NIH 3T3 fibroblasts; experiment: Uptake assay: cell-related FITC fluorescence corrected for cell number; assay type: cell-based, mouse; conditions: for cellular uptake / internalization efficiency: K(FITC)-labelled peptide
Protocol: NIH 3T3 mouse fibroblast cells were cultured as a monolayer at 37° C. with 10% CO2 in Dulbecco's Modified Eagle's Medium (DMEM) supplemented with 10% fetal bovine serum, 4 mM L-glutamine, 100 μg/mL streptomycin and 100 U/mL penicillin (all purchased from Biochrom AG, Germany). Cells were passaged by trypsinization with trypsin/EDTA 0.05/0.02% (w/v) in phosphate-buffered saline (PBS; Biochrom AG, Germany) every second to third day.
(§1) Internalization experiments on cells were performed in 96 well microplates by inoculation of NIH 3T3 fibroblasts (1×10^4 cells/well). After 24 h, cells were incubated with 2.5 μM of different peptide solutions in DMEM for additional 18 h at 37° C. with 10% CO2. Before washing, cells were incubated with Bisbenzimid 33342 (Hoechst 33342), a nuclear stain, in order to estimate the cell number. Cells were washed with Hanks' buffered saline (Biochrom AG, Germany) and extracellular fluorescence was quenched by incubating with cold trypan blue 0.05% (w/v) in phosphate-buffered saline (Biochrom AG, Germany) for 3 min followed by repeated washes with Hanks' buffered saline. Cell-related FITC fluorescence (Ex 485 nm/Em 530 nm) and cell number (Ex 346 nm/Em 460 nm) was evaluated in a multiplate reader. Experiments were run at least three times for each peptide with six replicates. Statistical analysis was performed by Student's t-test or ANOVA with Dunnett's post test. P values <0.05 were considered significant. The results are depicted in FIGS. 1 to 3.

[2] = system: different cell types and mouse blastocysts; conditions: cited from earlier work
[3] = system: NIH 3T3 fibroblasts; experiment: Fluorescence microscopy of cellular localization and distribution of the peptide; assay type: cell-based, mouse; conditions: for intracellular fluorescence distribution (vesicular / diffused cytosolic): K(FITC)-labelled peptide, 2.5 μM, live cells without fixation
Excerpt: (§2) The same cells were subjected to microscopic studies without fixation using a Zeiss Axiovert 200 M (Germany) microscope with a LD Plan NeoFluor 40× objective. The imaging conditions were kept constant for the observation of different samples. Cellular localization and distribution of the peptide was observed by irradiating with blue light (470/40 nm) and observing at 525/50 nm. The bright punctate and encapsulated appearing FITC fluorescence was categorized as vesicular uptake while diffused fluorescence appeared to be distributed in the entire cell with similar intensity. […] Also phase contrast images with DIC of the same area were made to observe if the cells maintain their normal morphology in the presence of peptides.

[4] = system: C6 rat glioma; experiment: Internalization in additional cell lines; assay type: cell-based
Protocol: (§3) C6 rat glioma N18 mouse neuroblastoma (differentiated, undifferentiated) CCL-11 mouse fibrosarcoma Shin3 human ovarian carcinoma PANC1 human pancreatic carcinoma Primary murine bone marrow cells
(§4) Cells were cultivated using their respective optimized growth medium and passaged as described. Differentiation was induced in N18 cells by stepwise reduction of serum in the growth medium from 10% to 1.25%.
as §1, §2

[5] = system: CCL-11 mouse fibrosarcoma; experiment: Internalization in additional cell lines; assay type: cell-based
Protocol: as §3, §4, §1, §2

[6] = system: N18 mouse neuroblastoma (undifferentiated); experiment: Internalization in additional cell lines; assay type: cell-based
Protocol: as §3, §4, §1, §2

[7] = system: PANC1 human pancreatic carcinoma; experiment: Internalization in additional cell lines; assay type: cell-based
Protocol: as §3, §4, §1, §2

[8] = system: Shin3 human ovarian carcinoma; experiment: Internalization in additional cell lines; assay type: cell-based
Protocol: as §3, §4, §1, §2

[9] = system: differentiated N18 neuroblastoma cells; experiment: Internalization in additional cell lines; assay type: cell-based, mouse; conditions: differentiated N18, serum reduced from 10% to 1.25%
Protocol: as §3, §4
as §1, with “P values <0.05 were considered significant. The results are depicted in FIGS. 1 to 3.” left out

[10] = system: Primary murine bone marrow cells; experiment: Internalization in additional cell lines; assay type: cell-based, mouse
Protocol: as §3
Bone marrow cells were extracted from hind legs of sacrificed mice and were kept in supplemented IMDM medium.
as §1, with “3. […]” for “3.”

[11] = Peptide NMR in water, solution state; assay type: physicochemical
Protocol: Sample solutions were prepared at pH 4-4.5 and pH 6.5-7 in water. At pH 4.5 standard set of 2D homonuclear experiments (2D-ipCOSY, 2D-TOCSY, two 2D-NOESY spectra at different mixing times (100 and 200 ms)) and heteronuclear experiments (^13C-HSQC and ^15N-HSQC) were performed. The sample yielded well resolved spectra consistent with a monomeric peptide. Using these spectra it was possible to complete a full assignment of all non-exchangeable proton resonances, plus the carbon and nitrogen resonances.
Whereas at pH 6.5, broadening of lines, probably due to the formation of high molecular weight aggregates, makes it difficult to assign individual resonances. Thus, the presence or absence of disulfide bridges in this sample could not be deduced.
NMR experiments were carried out at 600 MHz on a Bruker Avance III spectrometer.

[12] = system: cells; conditions: cited from earlier work

## Ac-tccgtgaacggc-K(FITC)-CRWRWKCCKK-CONH2 (chain 1 Ac-[code t][code c][code c][code g][code t][code g][code a][code a][code c][code g][code g][code c]; chain 2 {K(FITC)}-CRWRWKCCKK-NH2; not fully specified (C-terminus); cysteine pairing not given here; also: chain 1 is a PNA strand joined via Lys(FITC) to peptide chain 2) [PNA-CyLoP-1 fusion]
[1]; 2.5 μM, 18 h, 37° C.
  uptake compared to peptide 23 (CyLoP-1): lowest intracellular fluorescence

## Crotamine
[2]; applied before cell division, after the telophase
  intracellular localization: mainly localized in the cytoplasm
[2]
  intracellular localization: localize preferably in the nucleus
  non-toxic concentration: up to 1 μM
[2]; in vitro
  cell penetration: penetrating into different cell types and mouse blastocysts

## K (FITC)-CRWRWKCCKK ({K(FITC)}-CRWRWKCCKK; cysteine pairing not given here) [peptide 23]
[1]; 2.5 μM
  delivery efficiency compared with penetratin: better taken up by cells
[1]; 2.5 μM, 18 h, 37° C.
  cellular uptake / internalization efficiency: competently taken up by cells
[1]; excess DTT in the incubation medium
  uptake and cytosolic diffused fluorescence on addition of Dithiothreitol (DTT): reduced the uptake as well as the cytosolic diffused fluorescence
[1]; subtoxic concentrations
  concentration at which efficient cellular uptake and cytosolic location along with vesicular distribution is shown: < 2.5 µM
[3]
  intracellular fluorescence distribution (vesicular / diffused cytosolic): endosomal as well as cytoplasmic fluorescence distribution
[3]; concentration as low as 2.5 μM
  cytosolic distribution at low concentration: retaining the cytosolic distribution
[4]
  uptake behaviour and fluorescence distribution: comparable uptake behaviour with vesicular as well as diffused cytosolic fluorescence distribution
[5]
  uptake behaviour and fluorescence distribution: comparable uptake behaviour with vesicular as well as diffused cytosolic fluorescence distribution
[6]
  uptake behaviour and fluorescence distribution: comparable uptake behaviour with vesicular as well as diffused cytosolic fluorescence distribution
[7]
  uptake behaviour and fluorescence distribution: comparable uptake behaviour with vesicular as well as diffused cytosolic fluorescence distribution
[8]
  uptake behaviour and fluorescence distribution: comparable uptake behaviour with vesicular as well as diffused cytosolic fluorescence distribution
[9]
  uptake: strongly reduced
[10]
  uptake behaviour and fluorescence distribution: comparable uptake behaviour with vesicular as well as diffused cytosolic fluorescence distribution
[11]; pH 4.5 in water
  solution state of the peptide: unstructured and in a reduced state
[11]; pH 6.5 in water
  solution state of the peptide: aggregation

## K (FITC)-KMDCRWRWKCCKK ({K(FITC)}-KMDCRWRWKCCKK; cysteine pairing not given here) [peptide 1, reference compound]
[1]; 2.5 μM, 18 h, 37° C.
  cellular uptake / internalization efficiency: efficient CPP
[3]
  intracellular fluorescence distribution (vesicular / diffused cytosolic): cytoplasmic diffusion
[12]
  internalization into cells: able to internalize into cells

Reference: patent US20110027300A1, “Identification of a novel cysteine-rich cell penetrating peptide” (Max-Planck-Gesellschaft zur Forderung der Wissenschaften …, priority 2008, published 2011)
